Data taken from patent US6737383B1, “Herbicidal oxadiazolidines” (priority 1999, dated 2004).

Tests used:
bedstraw = experiment: Test B pre/postemergence bedstraw; format: in vivo, Galium aparine
How it was run: (§1)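 Response is a visual 0-to-10 score relative to untreated plants, where 0 means no effect and 10 means complete control, taken twelve to sixteen days after application. Treatments went onto soil at planting and onto foliage of 1- to 4-leaf plants, using a surfactant-containing non-phytotoxic solvent.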

blackgrass = experiment: Test B pre/postemergence blackgrass; format: in vivo, Alopecurus myosuroides
How it was run: as §1

surinam grass = experiment: Test B pre/postemergence surinam grass; format: in vivo, Brachiaria decumbens
How it was run: as §1

cocklebur = experiment: Test B pre/postemergence cocklebur; format: in vivo, Xanthium strumarium
How it was run: as §1

corn = experiment: Test B pre/postemergence corn; format: in vivo, Zea mays
How it was run: as §1

crabgrass = experiment: Test B pre/postemergence crabgrass; format: in vivo, Digitaria sanguinalis
How it was run: as §1

giant foxtail = experiment: Test B pre/postemergence giant foxtail; format: in vivo, Setaria faberii
How it was run: as §1

morningglory = experiment: Test B pre/postemergence morningglory; format: in vivo, Ipomoea hederacea
How it was run: as §1

pigweed = experiment: Test B pre/postemergence pigweed; format: in vivo, Amaranthus retroflexus
How it was run: as §1

rape = experiment: Test B pre/postemergence rape; format: in vivo, Brassica napus
How it was run: as §1

soybean = experiment: Test B pre/postemergence soybean; format: in vivo, Glycine max
How it was run: as §1

sugar beet = experiment: Test B pre/postemergence sugar beet; format: in vivo, Beta vulgaris
How it was run: as §1

velvetleaf = experiment: Test B pre/postemergence velvetleaf; format: in vivo, Abutilon theophrasti
How it was run: as §1

wheat = experiment: Test B pre/postemergence wheat; format: in vivo, Triticum aestivum
How it was run: as §1

wild oat = experiment: Test B pre/postemergence wild oat; format: in vivo, Avena fatua
How it was run: as §1

purple nutsedge = experiment: Test B pre/postemergence purple nutsedge; format: in vivo, Cyperus rotundus
How it was run: as §1

rice = experiment: Test B flood test rice; format: in vivo, Oryza sativa
How it was run: (§2)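 Flood test on plants grown to the 2-leaf stage; treated plants kept in greenhouse twelve to sixteen days, then visually rated against controls on a 0 (no effect) to 10 (complete control) scale.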

smallflower flatsedge = experiment: Test B flood test smallflower flatsedge; format: in vivo, Cyperus difformis
How it was run: as §2

duck salad = experiment: Test B flood test duck salad; format: in vivo, Heteranthera limosa
How it was run: as §2

bamyardgrass = experiment: Test B flood test barnyardgrass; format: in vivo, Echinochloa crus-galli
How it was run: as §2

[1] = Postemergence, Rate 125 g/ha, scale of 0 to 10 where 0 is no effect and 10 is complete control
[2] = Rate 250 g/ha, Postemergence, scale 0 to 10, 0 is no effect, 10 is complete control
[3] = Rate 500 g/ha, Postemergence, scale 0 to 10, 0 is no effect, 10 is complete control
[4] = Postemergence, Rate 1000 g/ha, scale 0 to 10 (0 no effect, 10 complete control)
[5] = Preemergence, Rate 125 g/ha, scale of 0 to 10 where 0 is no effect and 10 is complete control
[6] = Preemergence, Rate 250 g/ha, scale 0 to 10 (0 no effect, 10 complete control)
[7] = Preemergence, Rate 500 g/ha, scale of 0 to 10 where 0 is no effect and 10 is complete control
[8] = Rate 1000 g/ha, Preemergence, scale 0 to 10 (0 no effect, 10 complete control)
[9] = Pre-emergence, Rate 1000 g/ha, scale 0 to 10 (0 no effect, 10 complete control)
[10] = Rate 125 g/ha, under heading Pre-emergence, flood test species, visual evaluation after twelve to sixteen days
[11] = Rate 250 g/ha, Pre-emergence (flood test species), scale 0 to 10, 0 is no effect, 10 is complete control
[12] = Rate 500 g/ha, Pre-emergence section of Table B, 0 to 10 scale (0 no effect, 10 complete control)
[13] = Preemergence, Rate 62 g/ha, scale of 0 to 10 where 0 is no effect and 10 is complete control
[14] = Preemergence, Rate 250 g/ha, scale 0 (no effect) to 10 (complete control)
[15] = Pre-emergence, Rate 62 g/ha, scale 0 to 10, 0 is no effect, 10 is complete control
[16] = Rate 125 g/ha, Pre-emergence section (flood test species), scale 0 to 10, 0 no effect, 10 complete control

COC(=O)C(CCO)n1c(=O)on(C(=O)N(c2ccc(Cl)cc2)C(C)C)c1=O (centres unmarked) [Compound 679]
6: Plant response rating, Redroot pigweed (pigweed; [8])
8: Plant response rating, Giant foxtail (giant foxtail; [7]) | Plant response rating, Giant foxtail (giant foxtail; [8])
3: Plant response rating, Crabgrass (crabgrass; [8])
0: Bedstraw plant response rating (bedstraw; [1]) | Bedstraw plant response rating (bedstraw; [2]) | Bedstraw plant response rating (bedstraw; [3]) | Blackgrass plant response rating (blackgrass; [1]) | Plant response rating, Blackgrass (blackgrass; [5]) | Plant response rating, Blackgrass (blackgrass; [6]) | Plant response rating, Blackgrass (blackgrass; [7]) | Blackgrass plant response rating (blackgrass; [2]) | Blackgrass plant response rating (blackgrass; [3]) | B. signalgrass plant response rating (surinam grass; [1]) | B. signalgrass plant response rating (surinam grass; [4]) | Plant response rating, B. signalgrass (surinam grass; [5]) | Plant response rating, B. signalgrass (surinam grass; [6]) | Plant response rating, B. signalgrass (surinam grass; [7]) | B. signalgrass plant response rating (surinam grass; [2]) | B. signalgrass plant response rating (surinam grass; [3]) | Plant response rating, B. signalgrass (surinam grass; [8]) | Cocklebur plant response rating (cocklebur; [1]) | Plant response rating, Cocklebur (cocklebur; [5]) | Plant response rating, Cocklebur (cocklebur; [6]) | Plant response rating, Cocklebur (cocklebur; [7]) | Cocklebur plant response rating (cocklebur; [2]) | Cocklebur plant response rating (cocklebur; [3]) | Plant response rating, Cocklebur (cocklebur; [8]) | Corn plant response rating (corn; [1]) | Corn plant response rating (corn; [4]) | Plant response rating, Corn (corn; [5]) | Plant response rating, Corn (corn; [6]) | Plant response rating, Corn (corn; [7]) | Corn plant response rating (corn; [2]) | Corn plant response rating (corn; [3]) | Crabgrass plant response rating (crabgrass; [1]) | Plant response rating, Crabgrass (crabgrass; [5]) | Plant response rating, Crabgrass (crabgrass; [6]) | Crabgrass plant response rating (crabgrass; [2]) | Giant foxtail plant response rating (giant foxtail; [1]) | Plant response rating, Giant foxtail (giant foxtail; [5]) | Giant foxtail plant response rating (giant foxtail; [2]) | Morningglory plant response rating (morningglory; [1]) | Plant response rating, Morningglory (morningglory; [5]) | Plant response rating, Morningglory (morningglory; [7]) | Morningglory plant response rating (morningglory; [2]) | Plant response rating, Morningglory (morningglory; [8]) | Redroot pigweed plant response rating (pigweed; [1]) | Plant response rating, Redroot pigweed (pigweed; [5]) | Redroot pigweed plant response rating (pigweed; [2]) | Redroot pigweed plant response rating (pigweed; [3]) | Rape plant response rating (rape; [1]) | Rape plant response rating (rape; [4]) | Plant response rating, Rape (rape; [5]) | Plant response rating, Rape (rape; [7]) | Rape plant response rating (rape; [2]) | Rape plant response rating (rape; [3]) | Plant response rating, Rape (rape; [8]) | Soybean plant response rating (soybean; [1]) | Plant response rating, Soybean (soybean; [5]) | Plant response rating, Soybean (soybean; [7]) | Plant response rating, Soybean (soybean; [8]) | Sugarbeets plant response rating (sugar beet; [1]) | Plant response rating, Sugarbeets (sugar beet; [5]) | Plant response rating, Sugarbeets (sugar beet; [7]) | Sugarbeets plant response rating (sugar beet; [2]) | Sugarbeets plant response rating (sugar beet; [3]) | Plant response rating, Sugarbeets (sugar beet; [8]) | Velvetleaf plant response rating (velvetleaf; [1]) | Plant response rating, Velvetleaf (velvetleaf; [5]) | Plant response rating, Velvetleaf (velvetleaf; [7]) | Velvetleaf plant response rating (velvetleaf; [2]) | Velvetleaf plant response rating (velvetleaf; [3]) | Plant response rating, Velvetleaf (velvetleaf; [8]) | Wheat plant response rating (wheat; [1]) | Plant response rating, Wheat (wheat; [5]) | Plant response rating, Wheat (wheat; [7]) | Wheat plant response rating (wheat; [2]) | Wheat plant response rating (wheat; [3]) | Plant response rating, Wheat (wheat; [8]) | Wild oats plant response rating (wild oat; [1]) | Plant response rating, Wild oats (wild oat; [5]) | Plant response rating, Wild oats (wild oat; [7]) | Wild oats plant response rating (wild oat; [2]) | Wild oats plant response rating (wild oat; [3]) | Plant response rating, Wild oats (wild oat; [8]) | Nutsedge plant response rating (purple nutsedge; [1]) | Nutsedge plant response rating (purple nutsedge; [4]) | Plant response rating, Nutsedge (purple nutsedge; [5]) | Plant response rating, Nutsedge (purple nutsedge; [7]) | Nutsedge plant response rating (purple nutsedge; [2]) | Nutsedge plant response rating (purple nutsedge; [3]) | Rice plant response rating (rice; [9]) | Rice plant response rating (0 to 10 scale, 0 is no effect, 10 is complete control) (rice; [10]) | Rice plant response rating (rice; [11]) | Rice plant response rating (rice; [12]) | S. Flatsedge plant response rating (smallflower flatsedge; [9]) | S. Flatsedge plant response rating (0 to 10 scale, 0 is no effect, 10 is complete control) (smallflower flatsedge; [10]) | S. Flatsedge plant response rating (smallflower flatsedge; [11]) | S. Flatsedge plant response rating (smallflower flatsedge; [12]) | Ducksalad plant response rating (duck salad; [9]) | Ducksalad plant response rating (0 to 10 scale, 0 is no effect, 10 is complete control) (duck salad; [10]) | Ducksalad plant response rating (duck salad; [11]) | Ducksalad plant response rating (duck salad; [12]) | Barnyardgrass plant response rating (bamyardgrass; [9]) | Barnyardgrass plant response rating (0 to 10 scale, 0 is no effect, 10 is complete control) (bamyardgrass; [10]) | Barnyardgrass plant response rating (bamyardgrass; [11]) | Barnyardgrass plant response rating (bamyardgrass; [12])
5: Plant response rating, Blackgrass (blackgrass; [8]) | Giant foxtail plant response rating (giant foxtail; [4])
4: Giant foxtail plant response rating (giant foxtail; [3])
2: Plant response rating, Corn (corn; [8]) | Crabgrass plant response rating (crabgrass; [4]) | Morningglory plant response rating (morningglory; [4]) | Morningglory plant response rating (morningglory; [3]) | Redroot pigweed plant response rating (pigweed; [4])
1: Blackgrass plant response rating (blackgrass; [4]) | Cocklebur plant response rating (cocklebur; [4]) | Plant response rating, Crabgrass (crabgrass; [7]) | Plant response rating, Redroot pigweed (pigweed; [7]) | Soybean plant response rating (soybean; [2]) | Soybean plant response rating (soybean; [3])

CC(C)N(C(=O)n1oc(=O)n(CC2=NOCC2)c1=O)c1ccccc1 [Compound 706]
5: Crabgrass plant response rating (crabgrass; [13]) | Plant response rating, Crabgrass (crabgrass; [5]) | Velvetleaf plant response rating (velvetleaf; [14]) | Wheat plant response rating (wheat; [14])
0: Bedstraw plant response rating (bedstraw; [13]) | Plant response rating, Bedstraw (bedstraw; [5]) | Bedstraw plant response rating (bedstraw; [14]) | Cocklebur plant response rating (cocklebur; [13]) | Plant response rating, Cocklebur (cocklebur; [5]) | Cocklebur plant response rating (cocklebur; [14]) | Plant response rating, Cocklebur (cocklebur; [7]) | Corn plant response rating (corn; [13]) | Plant response rating, Corn (corn; [5]) | Corn plant response rating (corn; [14]) | Rape plant response rating (rape; [13]) | Plant response rating, Rape (rape; [5]) | Soybean plant response rating (soybean; [13]) | Plant response rating, Soybean (soybean; [5]) | Soybean plant response rating (soybean; [14]) | Sugarbeets plant response rating (sugar beet; [13]) | Velvetleaf plant response rating (velvetleaf; [13]) | Wheat plant response rating (wheat; [13]) | Nutsedge plant response rating (purple nutsedge; [13]) | Nutsedge plant response rating (purple nutsedge; [14]) | Rice plant response rating (rice; [15]) | Rice plant response rating (rice; [16]) | Rice plant response rating (rice; [11]) | Rice plant response rating (rice; [12]) | S. Flatsedge plant response rating (smallflower flatsedge; [15]) | S. Flatsedge plant response rating (smallflower flatsedge; [16]) | S. Flatsedge plant response rating (smallflower flatsedge; [11]) | S. Flatsedge plant response rating (smallflower flatsedge; [12]) | Ducksalad plant response rating (duck salad; [15]) | Ducksalad plant response rating (duck salad; [16]) | Ducksalad plant response rating (duck salad; [11]) | Ducksalad plant response rating (duck salad; [12]) | Barnyardgrass plant response rating (bamyardgrass; [15]) | Barnyardgrass plant response rating (bamyardgrass; [16]) | Barnyardgrass plant response rating (bamyardgrass; [11]) | Barnyardgrass plant response rating (bamyardgrass; [12])
2: B. signalgrass plant response rating (surinam grass; [13])
4: Plant response rating, Sugarbeets (sugar beet; [5]) | Sugarbeets plant response rating (sugar beet; [14]) | Plant response rating, Wheat (wheat; [5]) | Wild oats plant response rating (wild oat; [13])
3: Rape plant response rating (rape; [14])
10: Blackgrass plant response rating (blackgrass; [14]) | Plant response rating, Blackgrass (blackgrass; [7]) | Plant response rating, B. signalgrass (surinam grass; [7]) | Redroot pigweed plant response rating (pigweed; [14])
6: Giant foxtail plant response rating (giant foxtail; [13]) | Plant response rating, Giant foxtail (giant foxtail; [5])
7: Giant foxtail plant response rating (giant foxtail; [14]) | Plant response rating, Wild oats (wild oat; [5])
1: Morningglory plant response rating (morningglory; [13]) | Plant response rating, Morningglory (morningglory; [5]) | Morningglory plant response rating (morningglory; [14]) | Plant response rating, Velvetleaf (velvetleaf; [5])
8: Blackgrass plant response rating (blackgrass; [13]) | Plant response rating, Blackgrass (blackgrass; [5]) | Plant response rating, B. signalgrass (surinam grass; [5]) | B. signalgrass plant response rating (surinam grass; [14]) | Crabgrass plant response rating (crabgrass; [14]) | Redroot pigweed plant response rating (pigweed; [13]) | Plant response rating, Redroot pigweed (pigweed; [5]) | Wild oats plant response rating (wild oat; [14])
